Laboratory results taken from paper PMC7385619, “A triple action CDK4/6-PI3K-BET inhibitor with augmented cancer cell cytotoxicity” (Cell Discovery, 2020).

Tests used:
Assay in all cases: KINOMEscan assay (Eurofins DiscoverX)
Assay type in all cases: binding
kinome (kinase panel) [1] = target: T1, kinome (kinase panel) (Homo sapiens, UniProt O94768); settings: DRAK2 (Entrez STK17B); 1000 nM; read-out: Percent Control
T1 construct: purchased Eurofins DiscoverX

kinome (kinase panel) [2] = target: T2, kinome (kinase panel) (Homo sapiens, UniProt Q92918); settings: HPK1 (Entrez MAP4K1); 1000 nM; read-out: Percent Control
T2 construct: purchased Eurofins DiscoverX

kinome (kinase panel) [3] = target: T3, kinome (kinase panel) (Homo sapiens, UniProt P53355); settings: DAPK1; 1000 nM; read-out: Percent Control
T3 construct: purchased Eurofins DiscoverX

kinome (kinase panel) [4] = target: T4, kinome (kinase panel) (Homo sapiens, UniProt P12931); settings: SRC; 1000 nM; read-out: Percent Control
T4 construct: purchased Eurofins DiscoverX

kinome (kinase panel) [5] = target: T5, kinome (kinase panel) (Homo sapiens, UniProt P22455); settings: FGFR4; 1000 nM; read-out: Percent Control
T5 construct: purchased Eurofins DiscoverX

kinome (kinase panel) [6] = target: T6, kinome (kinase panel) (Homo sapiens, UniProt Q9NQU5); settings: PAK6; 1000 nM; read-out: Percent Control
T6 construct: purchased Eurofins DiscoverX

kinome (kinase panel) [7] = target: T7, kinome (kinase panel) (Homo sapiens, UniProt P31152); settings: ERK4 (Entrez MAPK4); 1000 nM; read-out: Percent Control
T7 construct: purchased Eurofins DiscoverX

kinome (kinase panel) [8] = target: T8, kinome (kinase panel) (Homo sapiens, UniProt O94806); settings: PRKD3; 1000 nM; read-out: Percent Control
T8 construct: purchased Eurofins DiscoverX

kinome (kinase panel) [9] = target: T9, kinome (kinase panel) (Homo sapiens, UniProt P00519, T315I)
T9 construct: purchased Eurofins DiscoverX

kinome (kinase panel) [10] = target: T10, kinome (kinase panel) (Homo sapiens, UniProt O60285); settings: ARK5 (Entrez NUAK1); 1000 nM; read-out: Percent Control
T10 construct: purchased Eurofins DiscoverX

kinome (kinase panel) [11] = target: T11, kinome (kinase panel) (Homo sapiens, UniProt Q9Y2K2); settings: QSK (Entrez KIAA0999); 1000 nM; read-out: Percent Control
T11 construct: purchased Eurofins DiscoverX

kinome (kinase panel) [12] = target: T12, kinome (kinase panel) (Homo sapiens, UniProt Q6XUX3); settings: RIPK5 (DSTYK); 1000 nM; read-out: Percent Control
T12 construct: purchased Eurofins DiscoverX

kinome (kinase panel) [13] = target: T13, kinome (kinase panel) (Homo sapiens, UniProt P42336); settings: PIK3CA; 1000 nM; read-out: Percent Control
T13 construct: purchased Eurofins DiscoverX

kinome (kinase panel) [14] = target: T14, kinome (kinase panel) (Homo sapiens, UniProt P07949, V804M); settings: read-out: Percent Control
T14 construct: purchased Eurofins DiscoverX

kinome (kinase panel) [15] = target: T15, kinome (kinase panel) (Homo sapiens, UniProt Q9UQB9); settings: AURKC; 1000 nM; read-out: Percent Control
T15 construct: purchased Eurofins DiscoverX

kinome (kinase panel) [16] = target: T16, kinome (kinase panel) (Homo sapiens, UniProt P21127); settings: CDC2L1 (Entrez CDK11B); 1000 nM; read-out: Percent Control
T16 construct: purchased Eurofins DiscoverX

kinome (kinase panel) [17] = target: T17, kinome (kinase panel) (Homo sapiens, UniProt Q9HBY8); settings: SGK2; 1000 nM; read-out: Percent Control
T17 construct: purchased Eurofins DiscoverX

kinome (kinase panel) [18] = target: T18, kinome (kinase panel) (Homo sapiens, UniProt P50613); settings: CDK7; 1000 nM; read-out: Percent Control
T18 construct: purchased Eurofins DiscoverX

kinome (kinase panel) [19] = target: T19, kinome (kinase panel) (Homo sapiens, UniProt Q96GD4); settings: AURKB; 1000 nM; read-out: Percent Control
T19 construct: purchased Eurofins DiscoverX

kinome (kinase panel) [20] = target: T20, kinome (kinase panel) (Homo sapiens, UniProt P54646); settings: AMPK-alpha2 (Entrez PRKAA2); 1000 nM; read-out: Percent Control
T20 construct: purchased Eurofins DiscoverX

kinome (kinase panel) [21] = target: T21, kinome (kinase panel) (Homo sapiens, UniProt Q16816); settings: PHKG1; 1000 nM; read-out: Percent Control
T21 construct: purchased Eurofins DiscoverX

kinome (kinase panel) [22] = target: T22, kinome (kinase panel) (Homo sapiens, UniProt O76039); settings: CDKL5; 1000 nM; read-out: Percent Control
T22 construct: purchased Eurofins DiscoverX

kinome (kinase panel) [23] = target: T23, kinome (kinase panel) (Homo sapiens, UniProt Q8IY84); settings: NIM1 (Entrez MGC42105); 1000 nM; read-out: Percent Control
T23 construct: purchased Eurofins DiscoverX

kinome (kinase panel) [24] = target: T24, kinome (kinase panel) (Homo sapiens, UniProt Q5S007, G2019S); settings: read-out: Percent Control
T24 construct: purchased Eurofins DiscoverX

kinome (kinase panel) [25] = target: T25, kinome (kinase panel) (Homo sapiens, UniProt O14976); settings: GAK; 1000 nM; read-out: Percent Control
T25 construct: purchased Eurofins DiscoverX

kinome (kinase panel) [26] = target: T26, kinome (kinase panel) (Homo sapiens, UniProt Q00535); settings: CDK5; 1000 nM; read-out: Percent Control
T26 construct: purchased Eurofins DiscoverX

kinome (kinase panel) [27] = target: T27, kinome (kinase panel) (Homo sapiens, UniProt P04629); settings: TRKA (NTRK1); 1000 nM; read-out: Percent Control
T27 construct: purchased Eurofins DiscoverX

kinome (kinase panel) [28] = target: T28, kinome (kinase panel) (Homo sapiens, UniProt P42336, M1043I); settings: read-out: Percent Control
T28 construct: purchased Eurofins DiscoverX

kinome (kinase panel) [29] = target: T29, kinome (kinase panel) (Homo sapiens, UniProt P51451); settings: BLK; 1000 nM; read-out: Percent Control
T29 construct: purchased Eurofins DiscoverX

kinome (kinase panel) [30] = target: T30, kinome (kinase panel) (Homo sapiens, UniProt P41240); settings: CSK; 1000 nM; read-out: Percent Control
T30 construct: purchased Eurofins DiscoverX

kinome (kinase panel) [31] = target: T31, kinome (kinase panel) (Homo sapiens, UniProt Q96NX5); settings: CAMK1G; 1000 nM; read-out: Percent Control
T31 construct: purchased Eurofins DiscoverX

kinome (kinase panel) [32] = target: T32, kinome (kinase panel) (Homo sapiens, UniProt P48729); settings: CSNK1A1; 1000 nM; read-out: Percent Control
T32 construct: purchased Eurofins DiscoverX

T20 sequence (P54646 whole entry): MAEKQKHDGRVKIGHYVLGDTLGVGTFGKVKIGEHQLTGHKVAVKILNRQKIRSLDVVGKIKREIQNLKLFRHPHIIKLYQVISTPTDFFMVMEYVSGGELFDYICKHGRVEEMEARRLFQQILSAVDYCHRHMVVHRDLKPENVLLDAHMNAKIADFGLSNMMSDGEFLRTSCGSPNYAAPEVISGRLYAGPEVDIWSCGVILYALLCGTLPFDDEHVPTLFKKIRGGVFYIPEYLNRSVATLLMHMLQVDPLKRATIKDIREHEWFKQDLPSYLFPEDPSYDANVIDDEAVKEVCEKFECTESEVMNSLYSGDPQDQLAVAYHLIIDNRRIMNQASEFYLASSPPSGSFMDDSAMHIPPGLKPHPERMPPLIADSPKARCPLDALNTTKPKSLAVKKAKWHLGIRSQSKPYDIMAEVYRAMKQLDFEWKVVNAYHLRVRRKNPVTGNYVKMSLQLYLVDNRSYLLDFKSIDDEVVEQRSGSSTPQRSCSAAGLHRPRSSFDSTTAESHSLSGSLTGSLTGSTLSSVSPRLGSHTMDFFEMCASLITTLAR
T12 sequence (Q6XUX3 whole entry): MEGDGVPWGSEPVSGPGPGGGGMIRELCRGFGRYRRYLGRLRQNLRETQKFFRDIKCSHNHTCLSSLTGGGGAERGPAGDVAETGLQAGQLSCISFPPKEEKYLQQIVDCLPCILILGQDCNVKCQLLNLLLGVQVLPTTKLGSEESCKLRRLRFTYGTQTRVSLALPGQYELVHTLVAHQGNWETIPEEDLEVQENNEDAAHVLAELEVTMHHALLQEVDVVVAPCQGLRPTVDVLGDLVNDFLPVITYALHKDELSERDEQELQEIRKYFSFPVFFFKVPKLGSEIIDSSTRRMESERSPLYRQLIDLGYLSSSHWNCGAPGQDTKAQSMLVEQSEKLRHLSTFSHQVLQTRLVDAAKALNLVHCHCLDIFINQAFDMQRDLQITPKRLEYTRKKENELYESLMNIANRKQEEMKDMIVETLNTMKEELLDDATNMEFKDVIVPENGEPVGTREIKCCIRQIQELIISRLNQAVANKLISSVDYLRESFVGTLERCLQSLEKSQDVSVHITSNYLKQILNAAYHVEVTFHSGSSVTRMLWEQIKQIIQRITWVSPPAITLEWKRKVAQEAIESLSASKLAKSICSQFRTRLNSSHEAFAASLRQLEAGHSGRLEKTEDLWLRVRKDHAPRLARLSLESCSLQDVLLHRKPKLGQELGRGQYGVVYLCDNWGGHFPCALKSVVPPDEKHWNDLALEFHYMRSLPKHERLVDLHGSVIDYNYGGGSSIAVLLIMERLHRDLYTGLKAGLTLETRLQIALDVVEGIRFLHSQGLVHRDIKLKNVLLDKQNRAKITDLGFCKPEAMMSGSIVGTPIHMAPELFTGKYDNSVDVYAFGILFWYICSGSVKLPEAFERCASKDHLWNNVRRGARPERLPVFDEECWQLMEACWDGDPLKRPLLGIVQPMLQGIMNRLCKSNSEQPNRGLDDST
T19 sequence (Q96GD4 whole entry): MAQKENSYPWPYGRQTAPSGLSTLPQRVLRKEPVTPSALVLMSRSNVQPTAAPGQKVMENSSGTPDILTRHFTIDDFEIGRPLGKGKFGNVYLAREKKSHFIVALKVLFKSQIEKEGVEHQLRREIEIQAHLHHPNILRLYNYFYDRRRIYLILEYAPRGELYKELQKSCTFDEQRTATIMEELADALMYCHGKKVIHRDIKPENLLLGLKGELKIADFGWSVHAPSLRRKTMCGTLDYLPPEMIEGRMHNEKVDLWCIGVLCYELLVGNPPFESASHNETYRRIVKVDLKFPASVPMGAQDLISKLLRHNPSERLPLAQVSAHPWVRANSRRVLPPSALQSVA
T25 sequence (O14976 whole entry): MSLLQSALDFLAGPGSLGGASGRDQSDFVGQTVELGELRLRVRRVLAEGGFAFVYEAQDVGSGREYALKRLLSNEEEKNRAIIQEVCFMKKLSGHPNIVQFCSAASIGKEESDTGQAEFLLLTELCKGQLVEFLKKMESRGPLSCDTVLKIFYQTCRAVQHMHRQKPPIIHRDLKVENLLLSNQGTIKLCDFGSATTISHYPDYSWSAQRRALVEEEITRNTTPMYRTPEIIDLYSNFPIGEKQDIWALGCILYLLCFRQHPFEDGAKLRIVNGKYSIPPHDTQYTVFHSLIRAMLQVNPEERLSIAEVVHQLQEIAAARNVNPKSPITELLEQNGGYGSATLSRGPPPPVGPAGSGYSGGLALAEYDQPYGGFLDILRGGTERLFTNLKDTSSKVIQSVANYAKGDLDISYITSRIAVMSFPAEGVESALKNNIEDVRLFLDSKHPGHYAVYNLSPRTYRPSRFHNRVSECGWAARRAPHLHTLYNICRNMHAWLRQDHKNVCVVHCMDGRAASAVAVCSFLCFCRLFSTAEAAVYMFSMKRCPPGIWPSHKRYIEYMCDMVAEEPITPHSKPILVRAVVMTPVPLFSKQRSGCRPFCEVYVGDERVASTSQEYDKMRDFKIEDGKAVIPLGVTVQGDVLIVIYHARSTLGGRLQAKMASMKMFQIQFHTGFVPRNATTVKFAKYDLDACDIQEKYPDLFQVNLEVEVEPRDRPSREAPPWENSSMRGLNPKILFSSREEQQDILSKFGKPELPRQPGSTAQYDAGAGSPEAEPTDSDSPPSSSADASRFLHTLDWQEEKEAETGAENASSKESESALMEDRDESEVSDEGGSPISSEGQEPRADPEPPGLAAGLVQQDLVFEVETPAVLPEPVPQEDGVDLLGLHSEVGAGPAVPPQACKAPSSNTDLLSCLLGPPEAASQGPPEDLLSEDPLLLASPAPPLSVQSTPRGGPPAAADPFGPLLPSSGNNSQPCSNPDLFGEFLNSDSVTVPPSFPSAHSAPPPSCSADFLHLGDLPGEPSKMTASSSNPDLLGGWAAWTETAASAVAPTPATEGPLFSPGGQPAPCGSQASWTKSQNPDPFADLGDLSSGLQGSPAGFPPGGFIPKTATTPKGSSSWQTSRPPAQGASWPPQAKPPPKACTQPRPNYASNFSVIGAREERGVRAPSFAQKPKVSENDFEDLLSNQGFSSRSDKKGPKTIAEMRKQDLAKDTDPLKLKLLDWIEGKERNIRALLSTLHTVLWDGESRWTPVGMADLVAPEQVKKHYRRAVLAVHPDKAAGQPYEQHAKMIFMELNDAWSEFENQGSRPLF
T4 sequence (P12931 whole entry): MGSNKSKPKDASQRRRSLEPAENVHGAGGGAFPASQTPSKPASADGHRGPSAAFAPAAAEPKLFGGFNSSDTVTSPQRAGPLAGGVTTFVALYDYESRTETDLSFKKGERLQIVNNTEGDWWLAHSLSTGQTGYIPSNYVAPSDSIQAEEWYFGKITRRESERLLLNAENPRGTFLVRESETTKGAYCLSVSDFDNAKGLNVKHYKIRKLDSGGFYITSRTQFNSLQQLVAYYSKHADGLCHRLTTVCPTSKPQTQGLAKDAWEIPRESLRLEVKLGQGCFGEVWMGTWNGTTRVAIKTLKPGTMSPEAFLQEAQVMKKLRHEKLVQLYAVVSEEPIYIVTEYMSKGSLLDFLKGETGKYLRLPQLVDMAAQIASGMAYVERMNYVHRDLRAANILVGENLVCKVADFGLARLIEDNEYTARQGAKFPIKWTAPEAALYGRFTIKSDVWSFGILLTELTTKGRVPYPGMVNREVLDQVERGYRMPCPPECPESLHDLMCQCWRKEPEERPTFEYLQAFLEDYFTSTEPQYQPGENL
T16 sequence (P21127 whole entry): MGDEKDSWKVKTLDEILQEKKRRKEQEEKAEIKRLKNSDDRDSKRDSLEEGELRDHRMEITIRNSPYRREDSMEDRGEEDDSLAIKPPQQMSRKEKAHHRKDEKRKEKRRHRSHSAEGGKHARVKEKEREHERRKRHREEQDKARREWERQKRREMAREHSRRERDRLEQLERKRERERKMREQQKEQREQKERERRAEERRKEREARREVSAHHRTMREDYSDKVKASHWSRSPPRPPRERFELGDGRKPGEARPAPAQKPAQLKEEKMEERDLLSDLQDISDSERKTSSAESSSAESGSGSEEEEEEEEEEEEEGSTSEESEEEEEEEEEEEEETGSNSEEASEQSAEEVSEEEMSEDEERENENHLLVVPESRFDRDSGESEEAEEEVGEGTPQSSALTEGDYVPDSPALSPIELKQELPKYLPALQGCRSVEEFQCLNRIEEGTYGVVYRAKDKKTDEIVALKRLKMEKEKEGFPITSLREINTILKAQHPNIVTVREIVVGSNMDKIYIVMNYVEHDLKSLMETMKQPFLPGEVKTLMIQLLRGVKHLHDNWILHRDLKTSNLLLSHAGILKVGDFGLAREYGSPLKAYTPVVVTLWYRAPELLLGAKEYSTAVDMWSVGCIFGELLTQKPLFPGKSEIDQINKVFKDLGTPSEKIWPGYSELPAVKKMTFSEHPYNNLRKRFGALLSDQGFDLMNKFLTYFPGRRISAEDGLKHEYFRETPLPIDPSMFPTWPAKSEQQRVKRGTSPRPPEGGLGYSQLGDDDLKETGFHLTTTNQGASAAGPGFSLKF
T1 sequence (O94768 whole entry): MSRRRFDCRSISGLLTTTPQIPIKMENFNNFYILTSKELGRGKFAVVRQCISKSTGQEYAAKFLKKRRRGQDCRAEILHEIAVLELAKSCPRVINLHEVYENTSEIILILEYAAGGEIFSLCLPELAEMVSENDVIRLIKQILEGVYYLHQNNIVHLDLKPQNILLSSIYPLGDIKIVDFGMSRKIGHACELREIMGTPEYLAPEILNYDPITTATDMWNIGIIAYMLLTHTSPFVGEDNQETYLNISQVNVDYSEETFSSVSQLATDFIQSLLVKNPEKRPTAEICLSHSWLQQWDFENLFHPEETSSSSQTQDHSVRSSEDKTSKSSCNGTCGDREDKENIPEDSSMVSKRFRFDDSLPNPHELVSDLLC

CN(C)C(=O)c1cc2cnc(Nc3ccc(-c4csc5c(=O)cc(N6CCOCC6)oc45)cc3)nc2n1C1CCCC1 [SRX3177]
remaining binding at 1 µM (kinome (kinase panel) [1]): 100% | remaining binding at 1 µM (kinome (kinase panel) [2]): 100% | remaining binding at 1 µM (kinome (kinase panel) [3]): 100% | remaining binding at 1 µM (kinome (kinase panel) [4]): 74% | remaining binding at 1 µM (kinome (kinase panel) [5]): 86% | remaining binding at 1 µM (kinome (kinase panel) [6]): 100% | remaining binding at 1 µM (kinome (kinase panel) [7]): 96% | remaining binding at 1 µM (kinome (kinase panel) [8]): 92% | Percent Control (kinome (kinase panel) [9]): 79 | remaining binding at 1 µM (kinome (kinase panel) [9]; read-out: Percent Control): 88% | remaining binding at 1 µM (kinome (kinase panel) [10]): 86% | remaining binding at 1 µM (kinome (kinase panel) [11]): 59% | remaining binding at 1 µM (kinome (kinase panel) [12]): 87% | remaining binding at 1 µM (kinome (kinase panel) [13]): 72% | remaining binding at 1 µM (kinome (kinase panel) [14]): 100% | remaining binding at 1 µM (kinome (kinase panel) [15]): 21% | remaining binding at 1 µM (kinome (kinase panel) [16]): 99% | remaining binding at 1 µM (kinome (kinase panel) [17]): 65% | remaining binding at 1 µM (kinome (kinase panel) [18]): 90% | remaining binding at 1 µM (kinome (kinase panel) [19]): 4.9% | remaining binding at 1 µM (kinome (kinase panel) [20]): 98% | remaining binding at 1 µM (kinome (kinase panel) [21]): 88% | remaining binding at 1 µM (kinome (kinase panel) [22]): 65% | remaining binding at 1 µM (kinome (kinase panel) [23]): 69% | remaining binding at 1 µM (kinome (kinase panel) [24]): 44% | remaining binding at 1 µM (kinome (kinase panel) [25]): 56% | remaining binding at 1 µM (kinome (kinase panel) [26]): 90% | remaining binding at 1 µM (kinome (kinase panel) [27]): 1.1% | remaining binding at 1 µM (kinome (kinase panel) [28]): 70% | remaining binding at 1 µM (kinome (kinase panel) [29]): 100% | remaining binding at 1 µM (kinome (kinase panel) [30]): 100% | remaining binding at 1 µM (kinome (kinase panel) [31]): 75% | remaining binding at 1 µM (kinome (kinase panel) [32]): 83%
